The record followed here is patent publication US20230019491A1, “PYRIMIDINE TBK/IKKe INHIBITOR COMPOUNDS AND USES THEREOF” (Merck Patent GmbH, priority 2017, published 2023).

The target in one test is T1, IKKε (Homo sapiens, UniProt Q14164).
T1 sequence (Q14164 1-716): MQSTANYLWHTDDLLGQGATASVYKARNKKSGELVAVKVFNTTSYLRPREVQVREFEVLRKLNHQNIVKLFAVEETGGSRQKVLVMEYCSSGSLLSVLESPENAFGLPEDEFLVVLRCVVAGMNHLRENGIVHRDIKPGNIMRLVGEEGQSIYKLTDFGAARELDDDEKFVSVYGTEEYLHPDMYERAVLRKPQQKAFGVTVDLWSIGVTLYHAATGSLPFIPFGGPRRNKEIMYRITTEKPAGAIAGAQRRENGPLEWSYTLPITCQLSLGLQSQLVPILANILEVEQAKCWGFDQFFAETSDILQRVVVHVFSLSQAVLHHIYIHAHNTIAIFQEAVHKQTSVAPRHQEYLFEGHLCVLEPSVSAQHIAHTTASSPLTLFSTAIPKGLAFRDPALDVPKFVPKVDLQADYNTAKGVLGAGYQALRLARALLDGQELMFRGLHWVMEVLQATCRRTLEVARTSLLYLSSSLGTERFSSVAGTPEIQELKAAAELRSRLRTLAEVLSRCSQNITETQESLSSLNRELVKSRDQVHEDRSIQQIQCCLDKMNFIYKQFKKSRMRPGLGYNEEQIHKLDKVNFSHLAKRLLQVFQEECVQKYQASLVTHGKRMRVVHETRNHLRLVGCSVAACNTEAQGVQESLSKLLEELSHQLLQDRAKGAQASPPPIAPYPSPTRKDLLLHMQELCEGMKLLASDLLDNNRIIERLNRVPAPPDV
Kind of test: IKKε biochemical assay. The following applies: 10 point 1:4 dose response, 30 uM top concentration, 90 min at 25° C., LabChip EZ Reader II; read-out: IKKε_IC50. The method, boiled down: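 Mobility-shift LabChip read-out followed a 90 min, 25° C. reaction of IKKε with substrate and test compound, with DMSO held at 1% final. Reactions were ended with stop buffer. Wells with 10 uM final staurosporine defined complete inhibition, and DMSO-only wells the uninhibited level.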

A further test deals with T2, TBK1 (Homo sapiens, UniProt Q9UHD2).
T2 sequence (Q9UHD2 1-729): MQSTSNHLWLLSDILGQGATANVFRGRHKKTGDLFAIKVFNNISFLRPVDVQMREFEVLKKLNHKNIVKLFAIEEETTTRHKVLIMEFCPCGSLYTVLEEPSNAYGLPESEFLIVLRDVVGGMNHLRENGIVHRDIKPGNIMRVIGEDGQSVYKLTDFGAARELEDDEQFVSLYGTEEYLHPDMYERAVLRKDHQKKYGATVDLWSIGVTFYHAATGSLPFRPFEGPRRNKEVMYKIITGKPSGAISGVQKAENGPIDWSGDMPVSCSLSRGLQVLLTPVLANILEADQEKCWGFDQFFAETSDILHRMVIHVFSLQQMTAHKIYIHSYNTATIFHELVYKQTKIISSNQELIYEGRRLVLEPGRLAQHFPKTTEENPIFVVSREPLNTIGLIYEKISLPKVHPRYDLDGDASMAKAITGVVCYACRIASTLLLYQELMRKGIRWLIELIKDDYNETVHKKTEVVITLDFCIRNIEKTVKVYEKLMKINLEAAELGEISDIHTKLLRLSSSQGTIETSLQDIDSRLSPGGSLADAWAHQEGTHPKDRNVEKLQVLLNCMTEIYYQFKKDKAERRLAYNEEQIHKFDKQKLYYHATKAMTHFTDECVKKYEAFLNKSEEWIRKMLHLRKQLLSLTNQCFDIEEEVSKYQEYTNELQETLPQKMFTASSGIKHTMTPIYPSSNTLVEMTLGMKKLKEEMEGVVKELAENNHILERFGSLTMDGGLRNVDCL
Put plainly: TBK biochemical assay. The following applies: 10 point 1:4 dose response, 30 uM top concentration, 90 min at 25° C., LabChip EZ Reader II; read-out: TBK1_IC50. The method, boiled down:
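Read-out was a Caliper LabChip mobility-shift assay, run after a 90-min, 25 °C reaction of TBK1 with substrate and compounds, quenched with stop buffer. Control wells received staurosporine at 10 uM final.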

Where only a bound is given, the exact number is not on record here.

Take `COc1nc(Nc2nccc(-c3ccc(OC4CCOCC4)c(C#N)c3)n2)ccc1N1C[C@@H](C)N(C2COC2)[C@@H](C)C1` [Example 38, 5-[2-([5-[cis-3,5-dimethyl-4-(oxetan-3-yl)piperazin-1-yl]-6-methoxypyridin-2-yl]amino)pyrimidin-4-yl]-2-(oxan-4-yloxy)benzonitrile]: the IC50 on IKKε and on TBK1 was under 100 nM each time.

Take `COc1nc(Nc2nccc(-c3ccc(OCC4CN(C(=O)[C@@H](C)O)C4)c(C#N)c3)n2)ccc1N1CCN(C2COC2)CC1` [Example 280, 2-([1-[(2R)-2-hydroxypropanoyl]azetidin-3-yl]methoxy)-5-[2-([6-methoxy-5-[4-(oxetan-3-yl)piperazin-1-yl]pyridin-2-yl]amino)pyrimidin-4-yl]benzonitrile]: the IC50 on IKKε and on TBK1 was 100 to 1000 nM each time.

Take `COc1nc(Nc2ncc(C)c(-c3ccc(O[C@H]4CCN(C(=O)[C@H](C)O)CC4(F)F)c(C#N)c3)n2)ccc1N1CCN(C2COC2)CC1` [Example 284, 2-[[(4S)-3,3-difluoro-1-[(2S)-2-hydroxypropanoyl]piperidin-4-yl]oxy]-5-[2-([6-methoxy-5-[4-(oxetan-3-yl)piperazin-1-yl]pyridin-2-yl]amino)-5-methylpyrimidin-4-yl]benzonitrile]: the IC50 on IKKε and at TBK1 was under 100 nM in each case.

`COc1nc(Nc2nccc(-c3ccc(OC4CCOCC4)c(C#N)c3)n2)ccc1C(=O)N(C)CCO` [Example 3, 6-([4-[3-cyano-4-(oxan-4-yloxy)phenyl]pyrimidin-2-yl]amino)-N-(2-hydroxyethyl)-2-methoxy-N-methylpyridine-3-carboxamide]: the IC50 at IKKε and on TBK1 was under 100 nM in each case.

Turning to “tert-butyl 4-[2-cyano-5-methyl-4-[2-([4-[4-(oxetan-3-yl)piperazin-1-yl]phenyl]amino)pyrimidin-4-yl]phenoxy]-3,3-difluoropiperidine-1-carboxylate [Example 308]”, the IC50 at IKKε and at TBK1 was under 100 nM each time.

On to `CN1CCN(c2ccc(Nc3nccc(-c4ccc(OC5CCOCC5)c(C#N)c4)n3)cn2)CC1` [Example 66, 5-{2-[6-(4-Methyl-piperazin-1-yl)-pyridin-3-ylamino]-pyrimidin-4-yl}-2-(tetrahydro-pyran-4-yloxy)-benzonitrile], for which the IC50 at IKKε and on TBK1 was under 100 nM in each case.

For `COc1nccc(Nc2nccc(-c3ccc(OC4CCN(C(=O)[C@H](C)O)CC4(F)F)c(C#N)c3)n2)n1` (some centres unmarked) [Example 233], the IC50 at IKKε and at TBK1 was under 100 nM throughout.

For the compound `COc1cc(Nc2nccc(-c3ccc(OC4CCN(C(=O)CO)CC4(F)F)c(C#N)c3)n2)ccn1` (centres unmarked) [Example 326, 2-[[3,3-difluoro-1-(2-hydroxyacetyl)piperidin-4-yl]oxy]-5-[2-[(2-methoxypyridin-4-yl)amino]pyrimidin-4-yl]benzonitrile], the IC50 at IKKε and at TBK1 was under 100 nM throughout.

For `COc1nc(Nc2ncc(F)c(-c3ccc(OC4CCN(C(=O)CO)CC4(F)F)c(C#N)c3)n2)ccc1N1CCN(C2COC2)CC1` (centres unmarked) [Example 290, 2-{[3,3-difluoro-1-(2-hydroxyacetyl)piperidin-4-yl]oxy}-5-[5-fluoro-2-({6-methoxy-5-[4-(oxetan-3-yl)piperazin-1-yl]pyridin-2-yl}amino)pyrimidin-4-yl]benzonitrile], the IC50 on IKKε and at TBK1 was under 100 nM throughout.

For `COc1nc(Nc2nccc(-c3ccc(O[C@@H]4CCN(C(=O)[C@H](C)O)CC4(F)F)c(C#N)c3)n2)ccc1N1CCN(C2COC2)[C@@H](C)C1` [Example 248, 2 2-[(R)-3,3-Difluoro-1-((S)-2-hydroxy-propionyl)-piperidin-4-yloxy]-5-{2-[6-methoxy-5-((S)-3-methyl-4-oxetan-3-yl-piperazin-1-yl)-pyridin-2-ylamino]-pyrimidin-4-yl}-benzonitrile], the IC50 at IKKε and at TBK1 was under 100 nM in each case.

Consider `COc1nc(Nc2nccc(-c3ccc(OC4CNC4)c(C#N)c3)n2)ccc1N1CCN(C2COC2)CC1` [Example 174, 2-(azetidin-3-yloxy)-5-[2-([6-methoxy-5-[4-(oxetan-3-yl)piperazin-1-yl]pyridin-2-yl]amino)pyrimidin-4-yl]benzonitrile], for which the IC50 at IKKε and on TBK1 was under 100 nM each time.

In the case of `COc1nc(Nc2ncc(C)c(-c3ccc(OC4CCN(C(=O)[C@H](C)O)CC4(F)F)c(C#N)c3)n2)ccc1N1CCN(C2COC2)CC1` (stereo partly drawn) [Example 283, 2-([33-difluoro-1-[(2S)-2-hydroxypropanoyl]piperidin-4-yl]oxy)-5-[2-([6-methoxy-5-[4-(oxetan-3-yl)piperazin-1-yl]pyridin-2-yl]amino)-5-methylpyrimidin-4-yl]benzonitrile], the IC50 on IKKε and at TBK1 was under 100 nM each time.

In the case of `COc1nccc(Nc2nccc(-c3ccc(OC4CCNCC4(F)F)c(C#N)c3)n2)n1` (centres unmarked) [Example 232, 2-(3,3-Difluoro-piperidin-4-yloxy)-5-[2-(2-methoxy-pyrimidin-4-ylamino)-pyrimidin-4-yl]-benzonitrile], the IC50 on IKKε and on TBK1 was 100 to 1000 nM in each case.

With `COc1nc(Nc2nccc(-c3ccc(OC4CCN(C(=O)[C@@H](C)O)CC4(F)F)c(C#N)c3)n2)ccc1N1CCN(C2COC2)[C@@H](C)C1` (stereo partly drawn) [Example 125, 2-[3,3-Difluoro-1-((R)-2-hydroxy-propionyl)-piperidin-4-yloxy]-5-{2-[6-methoxy-5-((S)-3-methyl-4-oxetan-3-yl-piperazin-1-yl)-pyridin-2-ylamino]-pyrimidin-4-yl}-benzonitrile], the IC50 on IKKε and at TBK1 was under 100 nM each time.

For the compound `COc1nc(Nc2ncc(C)c(-c3ccc(O[C@@H]4CCN(C(=O)[C@H](C)O)CC4(F)F)c(C#N)c3)n2)ccc1N1CCN(C2COC2)CC1` [Example 285, 2-[[(4R)-3,3-difluoro-1-[(2S)-2-hydroxypropanoyl]piperidin-4-yl]oxy]-5-[2-([6-methoxy-5-[4-(oxetan-3-yl)piperazin-1-yl]pyridin-2-yl]amino)-5-methylpyrimidin-4-yl]benzonitrile], the IC50 at IKKε and at TBK1 was 100 to 1000 nM throughout.

As for `COc1cc(Nc2nccc(-c3ccc(OC4CCOCC4)c(C#N)n3)n2)ncc1C(=O)N(C)C` [Example 24, 6-([4-[6-cyano-5-(oxan-4-yloxy)pyridin-2-yl]pyrimidin-2-yl]amino)-4-methoxy-N,N-dimethylpyridine-3-carboxamide], the IC50 at IKKε and on TBK1 was 100 to 1000 nM each time.

As to `N#Cc1cc(-c2ccnc(Nc3cccc(C4CCN(C5COC5)CC4)c3)n2)ccc1OC1CCNCC1(F)F` (centres unmarked) [Example 222, 2-(3,3-Difluoro-piperidin-4-yloxy)-5-{2-[3-(1-oxetan-3-yl-piperidin-4-yl)-phenylamino]-pyrimidin-4-yl}-benzonitrile], the IC50 at IKKε and on TBK1 was under 100 nM throughout.

On to `COc1cc(Nc2nccc(-c3ccc(OC4CCOCC4)c(C#N)c3)n2)ncc1C(=O)N(C)C` [Example 49, 6-([4-[3-cyano-4-(oxan-4-yloxy)phenyl]pyrimidin-2-yl]amino)-4-methoxy-N,N-dimethylpyridine-3-carboxamide], for which the IC50 at IKKε and at TBK1 was 100 to 1000 nM in each case.

Turning to `N#Cc1cc(-c2ccnc(Nc3ccc(N4CCN(C5COC5)CC4)cn3)n2)ccc1OC1CCOCC1` [Example 165, 5-{2-[5-(4-Oxetan-3-yl-piperazin-1-yl)-pyridin-2-ylamino]-pyrimidin-4-yl}-2-(tetrahydro-pyran-4-yloxy)-benzonitrile], the IC50 on IKKε and at TBK1 was under 100 nM in each case.
